According to US9624269B2, “Peptide inhibitors of BACE1” (GENENTECH, INC., priority 2011, dated 2017):

Assays:
Test in all cases: Biotinylated BACE020 peptide binding ELISA
[1] = target: T1, human BACE1 ECD WT (Homo sapiens, UniProt P56817)
T1 construct: extracellular domain (ECD) (residues 22-457) and a C-terminal His8 tag; made in house; host or cells: Chinese hamster ovary cells (transient)
Description: (§1) Human BACE1 mutants were made in a pRK vector containing the BACE 1 signal peptide followed by its extracellular domain (ECD) (residues 22-457) and a C-terminal His8 tag (SEQ ID NO: 54). Mutations were made using the appropriate oligonucleotide using a QuikChange® II XL Site-Directed Mutagenesis kit (Agilent Technologies Stratagene Products, La Jolla, Calif.) and confirmed by DNA sequencing. Proteins were expressed transiently using Chinese hamster ovary cells growing in 1-liter fermenters and cultures were harvested after 2 weeks. Following centrifugation, mutant proteins from the medium were purified to homogeneity (>95% purity) by chromatography on Ni-NTA agarose (Qiagen, Valencia, Calif.). After washing with PBS containing 10 mM imidazole, proteins were eluted with PBS containing 200 mM imidazole and the eluate was pooled, concentrated using a Vivaspin 20 (Sartorius-stedim, Goettingen, Germany) and applied to a Superdex 200 10/300 GL column (GE Healthcare Bio-Sciences AB, Uppsala, Sweden) equilibrated in 20 mM HEPES pH 7.2, 150 mM NaCl. Protein peaks were collected, concentrated and protein concentration determined by A280.
(§2) Binding of biotinylated BACE020 to recombinant protein was determined by a 96-well plate assay. Maxisorp microtiter plates (Nalge Nunc International, Rochester, N.Y.) were coated overnight at 4° C. with 2 μg/ml BACE 1 mutant in 50 mM carbonate, pH 9.6. The coated wells were washed with buffer (PBS, 0.05% Polysorbate 20) and blocked with assay buffer (PBS, pH 7.4, 0.5% BSA, 0.05% Tween 20, 15 ppm Proclin) for 1 h at room temperature with gentle shaking. After blocking, various concentrations of C-terminal biotin tagged BACE020 peptide with a polyethylene glycol (PEG) spacer (Ac-[…]-(PEG)3-biotin (SEQ ID NO: 16); Ac-[…]-CONH—CH2—(CH2—CH2—O—)3—(CH2)3—NH-biotin (SEQ ID NO: 16)) diluted in assay buffer were added and plates were incubated for 1 h with gentle shaking at room temperature. After washing, the amount of peptide bound to the plate was detected by the addition of Streptavidin-Horseradish Peroxidase Conjugate (GE Healthcare, Piscataway, N.J.) followed by the addition of TMB/H2O2 substrate (KPL, Gaithersburg, Md.). The reaction was quenched with 1 M phosphoric acid and the A450 measured on a Molecular Devices SpectraMax Plus384 microplate reader. Concentrations to give half maximal effective concentration (EC50) were determined using a 4-parameter non-linear regression curve-fitting program with Kaleidagraph (Synergy Software, Reading, Pa.). […] Concentrations to give half maximal inhibition concentration (IC50) were determined using a 4-parameter non-linear regression curve-fitting program with Kaleidagraph.
(§3) The ability of biotinylated BACE020 to bind to BACE1 and mutants was determined using an ELISA assay. The fold decrease in binding affinity was determined as the relative EC50 values of EC50 (mut)/EC50 (WT), which are listed in Table 3.

[2] = target: T2, human BACE1 ECD mutant 1I79A (118) (Homo sapiens, UniProt P56817, I179A)
T2 construct: extracellular domain (ECD) (residues 22-457) and a C-terminal His8 tag; made in house; host or cells: Chinese hamster ovary cells (transient)
T2 sequence (P56817 22-457 I179A): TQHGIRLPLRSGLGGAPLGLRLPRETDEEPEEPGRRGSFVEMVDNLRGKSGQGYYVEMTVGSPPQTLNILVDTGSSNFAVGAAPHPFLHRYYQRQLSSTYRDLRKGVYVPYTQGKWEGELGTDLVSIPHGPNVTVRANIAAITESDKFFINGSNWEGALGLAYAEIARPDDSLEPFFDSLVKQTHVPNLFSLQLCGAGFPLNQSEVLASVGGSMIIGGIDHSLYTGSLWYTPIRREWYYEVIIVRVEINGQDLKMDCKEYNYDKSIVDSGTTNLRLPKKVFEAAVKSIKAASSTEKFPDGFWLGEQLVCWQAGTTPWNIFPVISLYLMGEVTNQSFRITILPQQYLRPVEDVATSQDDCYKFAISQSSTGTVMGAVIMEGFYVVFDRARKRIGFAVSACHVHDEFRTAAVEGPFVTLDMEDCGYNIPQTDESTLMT
Description: as §1, §2, §3

[3] = target: T3, human BACE1 ECD mutant D289A (228) (Homo sapiens, UniProt P56817, D289A)
T3 construct: extracellular domain (ECD) (residues 22-457) and a C-terminal His8 tag; made in house; host or cells: Chinese hamster ovary cells (transient)
T3 sequence (P56817 22-457 D289A): as the sequence (P56817 22-457 I179A) above, with A158I, D268A counted along it
Description: as §1, §2, §3

[4] = target: T4, human BACE1 ECD mutant D93A (32) (Homo sapiens, UniProt P56817, D93A)
T4 construct: extracellular domain (ECD) (residues 22-457) and a C-terminal His8 tag; made in house; host or cells: Chinese hamster ovary cells (transient)
T4 sequence (P56817 22-457 D93A): as the sequence (P56817 22-457 I179A) above, with D72A, A158I counted along it
Description: as §1, §2, §3

[5] = target: T5, human BACE1 ECD mutant F169A (108) (Homo sapiens, UniProt P56817, F169A)
T5 construct: extracellular domain (ECD) (residues 22-457) and a C-terminal His8 tag; made in house; host or cells: Chinese hamster ovary cells (transient)
T5 sequence (P56817 22-457 F169A): as the sequence (P56817 22-457 I179A) above, with F148A, A158I counted along it
Description: as §1, §2, §3

[6] = target: T6, human BACE1 ECD mutant G291A (230) (Homo sapiens, UniProt P56817, G291A)
T6 construct: its extracellular domain (ECD) (residues 22-457) and a C-terminal His8 tag; His8 (C); made in house; host or cells: Chinese hamster ovary cells (transient, secreted)
T6 sequence (P56817 22-457 G291A): as the sequence (P56817 22-457 I179A) above, with A158I, G270A counted along it
Description: as §1, §2, §3

[7] = target: T7, human BACE1 ECD mutant G72A (11) (Homo sapiens, UniProt P56817, G72A)
T7 construct: extracellular domain (ECD) (residues 22-457) and a C-terminal His8 tag; made in house; host or cells: Chinese hamster ovary cells (transient)
T7 sequence (P56817 22-457 G72A): as the sequence (P56817 22-457 I179A) above, with G51A, A158I counted along it
Description: as §1, §2, §3

[8] = target: T8, human BACE1 ECD mutant G74A (13) (Homo sapiens, UniProt P56817, G74A)
T8 construct: extracellular domain (ECD) (residues 22-457) and a C-terminal His8 tag; made in house; host or cells: Chinese hamster ovary cells (transient)
T8 sequence (P56817 22-457 G74A): as the sequence (P56817 22-457 I179A) above, with G53A, A158I counted along it
Description: as §1, §2, §3

[9] = target: T9, human BACE1 ECD mutant I171A (110) (Homo sapiens, UniProt P56817, I171A)
T9 construct: extracellular domain (ECD) (residues 22-457) and a C-terminal His8 tag; made in house; host or cells: Chinese hamster ovary cells (transient)
T9 sequence (P56817 22-457 I171A): as the sequence (P56817 22-457 I179A) above, with I150A, A158I counted along it
Description: as §1, §2, §3

[10] = target: T10, human BACE1 ECD mutant K168A (107) (Homo sapiens, UniProt P56817, K168A)
T10 construct: extracellular domain (ECD) (residues 22-457) and a C-terminal His8 tag; made in house; host or cells: Chinese hamster ovary cells (transient)
T10 sequence (P56817 22-457 K168A): as the sequence (P56817 22-457 I179A) above, with K147A, A158I counted along it
Description: as §1, §2, §3

[11] = target: T11, human BACE1 ECD mutant K285A (224) (Homo sapiens, UniProt P56817, K285A)
T11 construct: extracellular domain (ECD) (residues 22-457) and a C-terminal His8 tag; made in house; host or cells: Chinese hamster ovary cells (transient)
T11 sequence (P56817 22-457 K285A): as the sequence (P56817 22-457 I179A) above, with A158I, K264A counted along it
Description: as §1, §2, §3

[12] = target: T12, human BACE1 ECD mutant K382A (321) (Homo sapiens, UniProt P56817, K382A)
T12 construct: its extracellular domain (ECD) (residues 22-457) and a C-terminal His8 tag; His8 (C); made in house; host or cells: Chinese hamster ovary cells (transient, secreted)
T12 sequence (P56817 22-457 K382A): as the sequence (P56817 22-457 I179A) above, with A158I, K361A counted along it
Description: as §1, §2, §3

[13] = target: T13, human BACE1 ECD mutant L91A (30) (Homo sapiens, UniProt P56817, L91A)
T13 construct: extracellular domain (ECD) (residues 22-457) and a C-terminal His8 tag; made in house; host or cells: Chinese hamster ovary cells (transient)
T13 sequence (P56817 22-457 L91A): as the sequence (P56817 22-457 I179A) above, with L70A, A158I counted along it
Description: as §1, §2, §3

[14] = target: T14, human BACE1 ECD mutant N294A (233) (Homo sapiens, UniProt P56817, N294A)
T14 construct: its extracellular domain (ECD) (residues 22-457) and a C-terminal His8 tag; His8 (C); made in house; host or cells: Chinese hamster ovary cells (transient, secreted)
T14 sequence (P56817 22-457 N294A): as the sequence (P56817 22-457 I179A) above, with A158I, N273A counted along it
Description: as §1, §2, §3

[15] = target: T15, human BACE1 ECD mutant Q134A (73) (Homo sapiens, UniProt P56817, Q134A)
T15 construct: extracellular domain (ECD) (residues 22-457) and a C-terminal His8 tag; made in house; host or cells: Chinese hamster ovary cells (transient)
T15 sequence (P56817 22-457 Q134A): as the sequence (P56817 22-457 I179A) above, with Q113A, A158I counted along it
Description: as §1, §2, §3

[16] = target: T16, human BACE1 ECD mutant Q73A (12) (Homo sapiens, UniProt P56817, Q73A)
T16 construct: extracellular domain (ECD) (residues 22-457) and a C-terminal His8 tag; made in house; host or cells: Chinese hamster ovary cells (transient)
T16 sequence (P56817 22-457 Q73A): as the sequence (P56817 22-457 I179A) above, with Q52A, A158I counted along it
Description: as §1, §2, §3

[17] = target: T17, human BACE1 ECD mutant R189A (128) (Homo sapiens, UniProt P56817, R189A)
T17 construct: extracellular domain (ECD) (residues 22-457) and a C-terminal His8 tag; made in house; host or cells: Chinese hamster ovary cells (transient)
T17 sequence (P56817 22-457 R189A): as the sequence (P56817 22-457 I179A) above, with A158I, R168A counted along it
Description: as §1, §2, §3

[18] = target: T18, human BACE1 ECD mutant R296A (235) (Homo sapiens, UniProt P56817, R296A)
T18 construct: its extracellular domain (ECD) (residues 22-457) and a C-terminal His8 tag; His8 (C); made in house; host or cells: Chinese hamster ovary cells (transient, secreted)
T18 sequence (P56817 22-457 R296A): as the sequence (P56817 22-457 I179A) above, with A158I, R275A counted along it
Description: as §1, §2, §3

[19] = target: T19, human BACE1 ECD mutant S96A (35) (Homo sapiens, UniProt P56817, S96A)
T19 construct: extracellular domain (ECD) (residues 22-457) and a C-terminal His8 tag; made in house; host or cells: Chinese hamster ovary cells (transient)
T19 sequence (P56817 22-457 S96A): as the sequence (P56817 22-457 I179A) above, with S75A, A158I counted along it
Description: as §1, §2, §3

[20] = target: T20, human BACE1 ECD mutant T133A (72) (Homo sapiens, UniProt P56817, T133A)
T20 construct: extracellular domain (ECD) (residues 22-457) and a C-terminal His8 tag; made in house; host or cells: Chinese hamster ovary cells (transient)
T20 sequence (P56817 22-457 T133A): as the sequence (P56817 22-457 I179A) above, with T112A, A158I counted along it
Description: as §1, §2, §3

[21] = target: T21, human BACE1 ECD mutant T292A (231) (Homo sapiens, UniProt P56817, T292A)
T21 construct: its extracellular domain (ECD) (residues 22-457) and a C-terminal His8 tag; His8 (C); made in house; host or cells: Chinese hamster ovary cells (transient, secreted)
T21 sequence (P56817 22-457 T292A): as the sequence (P56817 22-457 I179A) above, with A158I, T271A counted along it
Description: as §1, §2, §3

[22] = target: T22, human BACE1 ECD mutant T293A (232) (Homo sapiens, UniProt P56817, T293A)
T22 construct: its extracellular domain (ECD) (residues 22-457) and a C-terminal His8 tag; His8 (C); made in house; host or cells: Chinese hamster ovary cells (transient, secreted)
T22 sequence (P56817 22-457 T293A): as the sequence (P56817 22-457 I179A) above, with A158I, T272A counted along it
Description: as §1, §2, §3

[23] = target: T23, human BACE1 ECD mutant T390A (329) (Homo sapiens, UniProt P56817, T390A)
T23 construct: its extracellular domain (ECD) (residues 22-457) and a C-terminal His8 tag; His8 (C); made in house; host or cells: Chinese hamster ovary cells (transient, secreted)
T23 sequence (P56817 22-457 T390A): as the sequence (P56817 22-457 I179A) above, with A158I, T369A counted along it
Description: as §1, §2, §3

[24] = target: T24, human BACE1 ECD mutant W176A (115) (Homo sapiens, UniProt P56817, W176A)
T24 construct: extracellular domain (ECD) (residues 22-457) and a C-terminal His8 tag; made in house; host or cells: Chinese hamster ovary cells (transient)
T24 sequence (P56817 22-457 W176A): as the sequence (P56817 22-457 I179A) above, with W155A, A158I counted along it
Description: as §1, §2, §3

[25] = target: T25, human BACE1 ECD mutant Y132A (71) (Homo sapiens, UniProt P56817, Y132A)
T25 construct: extracellular domain (ECD) (residues 22-457) and a C-terminal His8 tag; made in house; host or cells: Chinese hamster ovary cells (transient)
T25 sequence (P56817 22-457 Y132A): as the sequence (P56817 22-457 I179A) above, with Y111A, A158I counted along it
Description: as §1, §2, §3

T1 sequence (P56817 22-457): as the sequence (P56817 22-457 I179A) above, with A158I counted along it

Ac-NEESMYCRLLGIGCG-(PEG)3-biotin [Biotinylated BACE020]
Fold Decrease in Binding EC50 (Mut)/EC50 (WT) [1]: 1.0
Fold Decrease in Binding EC50 (Mut)/EC50 (WT) [2]: 2.6
Fold Decrease in Binding EC50 (Mut)/EC50 (WT) [3]: 2210.0
Fold Decrease in Binding EC50 (Mut)/EC50 (WT) [4]: 568.0
Fold Decrease in Binding EC50 (Mut)/EC50 (WT) [5]: 1.9
Fold Decrease in Binding EC50 (Mut)/EC50 (WT) [6]: 0.8
Fold Decrease in Binding EC50 (Mut)/EC50 (WT) [7]: 6.5
Fold Decrease in Binding EC50 (Mut)/EC50 (WT) [8]: 488.0
Fold Decrease in Binding EC50 (Mut)/EC50 (WT) [9]: 1020.0
Fold Decrease in Binding EC50 (Mut)/EC50 (WT) [10]: 1.0
Fold Decrease in Binding EC50 (Mut)/EC50 (WT) [11]: 4.0
Fold Decrease in Binding EC50 (Mut)/EC50 (WT) [12]: 4.5
Fold Decrease in Binding EC50 (Mut)/EC50 (WT) [13]: 1.0
Fold Decrease in Binding EC50 (Mut)/EC50 (WT) [14]: 2.4
Fold Decrease in Binding EC50 (Mut)/EC50 (WT) [15]: 1990.0
Fold Decrease in Binding EC50 (Mut)/EC50 (WT) [16]: 1.7
Fold Decrease in Binding EC50 (Mut)/EC50 (WT) [17]: 2.7
Fold Decrease in Binding EC50 (Mut)/EC50 (WT) [18]: 70.9
Fold Decrease in Binding EC50 (Mut)/EC50 (WT) [19]: 1.0
Fold Decrease in Binding EC50 (Mut)/EC50 (WT) [20]: 1.1
Fold Decrease in Binding EC50 (Mut)/EC50 (WT) [21]: 73.6
Fold Decrease in Binding EC50 (Mut)/EC50 (WT) [22]: 349.0
Fold Decrease in Binding EC50 (Mut)/EC50 (WT) [23]: 0.9
Fold Decrease in Binding EC50 (Mut)/EC50 (WT) [24]: 690.0
Fold Decrease in Binding EC50 (Mut)/EC50 (WT) [25]: 72.2
